“And” between values parts separate entries of the source, which are not always exact repeats. Identical values can stand only once.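 Test compounds were applied to cells in 96-well plates for 48 hours at 5 doses. The concentration for 50% growth inhibition is given as GI50. Definition used: TGI = concentration required for complete inhibition of growth.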
How the values were obtained:
Test in all cases: growth of human tumour cells (NCI), 48 h
CCRF-CEM leukemia = tested on: CCRF-CEM leukemia
M14 melanoma = tested on: M14 melanoma
OVCAR-3 ovarian = tested on: OVCAR-3 ovarian
HOP-92 NSCLC = tested on: HOP-92 NSCLC
MALME-3M melanoma = tested on: MALME-3M melanoma
HT29 colon = tested on: HT29 colon
SF-295 CNS = tested on: SF-295 CNS
RXF 393 renal = tested on: RXF 393 renal
SNB-19 CNS = tested on: SNB-19 CNS
SW-620 colon = tested on: SW-620 colon

Compound | GI50 (CCRF-CEM leukemia) [µM] | TGI (CCRF-CEM leukemia) [µM] | GI50 (M14 melanoma) [µM] | TGI (M14 melanoma) [µM] | GI50 (OVCAR-3 ovarian) | TGI (OVCAR-3 ovarian) [µM] | GI50 (HOP-92 NSCLC) [µM] | TGI (HOP-92 NSCLC) | GI50 (MALME-3M melanoma) [µM] | TGI (MALME-3M melanoma) [µM] | GI50 (HT29 colon) [µM] | TGI (HT29 colon) [µM] | GI50 (SF-295 CNS) [µM] | TGI (SF-295 CNS) [µM] | GI50 (RXF 393 renal) | TGI (RXF 393 renal) | GI50 (SNB-19 CNS) [µM] | TGI (SNB-19 CNS) [µM] | GI50 (SW-620 colon) [µM] | TGI (SW-620 colon) [µM]
C=C(C)[C@@H]1CC[C@]2(C(N)=O)CC[C@]3(C)[C@H](CC[C@@H]4[C@@]5(C)CC[C@H](O)C(C)(C)[C@@H]5CC[C@]43C)[C@@H]12 | 4.49 | > 100 | 6.05 | > 100 | 2.07 µM | 4.18 | 2.69 | 8.86 µM | 2.39 | 8.15 | 2.56 | 7.42 | 3.39 | 24.8 | 2.1 µM | 5.39 µM | 4.57 | 34.3 | 3.88 | 26.1
CC1CN(c2ccc(Cl)cc2)CC(C)(C)OC(=O)O1 (stereo not given) |  | > 100 |  | > 100 |  | > 100 |  | > 100 µM |  | > 100 |  | > 100 |  | > 100 |  | > 100 µM |  | > 100 |  | > 100
COc1ccc(-c2nsc3c2NC(=O)CC3c2ccc(F)cc2)cc1 (stereo not given) | 5.27 | > 100 | 3.74 | > 100 | 3.79 µM | > 100 | 1.77 | 23.7 µM | 10.3 | > 100 | 2.84 | 27.6 | 4.08 | > 29.1 | 5.91 µM | > 77.5 µM | 7.75 | > 100 | 2.77 | > 100
COC(=O)[C@H]1[C@@H](O)[C@@]2(O)c3c(OC)cc(O[C@@H]4O[C@@H]([C@H](O)CO)CO[C@H]4OC)cc3O[C@@]2(c2ccc(OC)cc2)[C@@H]1c1ccccc1 | 0.00545 | 0.125 | 0.00818 | 0.0271 | 0.00378 µM | 0.035 | 0.00325 | 0.0151 µM | 0.00321 | 0.0259 | 0.003 | 0.0142 | 0.0127 | 0.0471 | 0.00944 µM | 0.0436 µM | 0.00277 | 0.0384 | 0.00605 | 0.186
CC(=O)NC(CCCCN(Cc1ccccc1)C(=O)NCCCl)C(=O)NCc1ccccc1 (stereo not given) |  | > 100 |  | > 100 |  | > 100 |  | > 100 µM |  | > 100 |  | > 100 |  | > 100 |  |  |  | > 100 |  | > 100
COc1cc(Br)c(CC2(C#N)c3ccccc3C3C(N2C(=O)c2ccccc2)C3(Cl)Cl)cc1OC (stereo not given) |  | > 65.5 |  | > 65.5 |  | > 65.5 |  | > 65.5 µM |  | > 65.5 |  | > 65.5 |  |  |  | > 65.5 µM |  | > 65.5 |  | > 65.5
C#CCSc1n[nH]c(-c2ccco2)n1 |  |  |  | > 100 |  | > 100 |  | > 100 µM |  | > 100 |  | > 100 |  | > 100 |  | > 100 µM |  | > 100 |  | > 100
NCCCCCCCCn1c2c(c3ccccc3c1=O)C(=O)c1ccccc1-2 |  |  | 3.4 | 10.4 | 3.5 µM | 11.6 | 2.4 | 8.47 µM | 2.85 | 8.86 | 1.86 | 4.02 | 2.57 | 7.18 | 4.58 µM | > 100 µM | 5.9 | 80.8 | 1.8 | 3.34
C[N+](C)(C)CC(=O)N/N=C(\CCC(=O)NCCc1ccccc1)CC(=O)c1ccccc1 |  | > 100 |  | > 100 |  | > 100 |  | > 100 µM |  | > 100 |  | > 100 |  | > 100 |  |  |  | > 100 |  | > 100
CCN(CC)c1ccc(C2CC(c3cc(OC)c(OC)c(OC)c3)=NN2)cc1 (stereo not given) | 0.277 | 1.16 | 1.16 | > 100 | 1.88 µM | > 100 | 1.55 | 31.1 µM | 14.5 | > 78.7 | 0.365 | > 43 | 0.188 | 5.19 |  |  | 0.636 | > 100 | 0.47 | > 100
CCc1c2c(nc3cc4c(c(N)c13)OCO4)-c1cc3c(c(=O)n1C2)COC(=O)[C@]3(O)CC |  |  | < 0.001 | 1.03 | 0.278 µM and 0.264 µM | > 100 | 0.00602 | 0.562 µM and 0.992 µM | 0.0276 | 4.25 | 0.0145 | > 100 | < 0.001 |  | 0.0188 µM and 0.043 µM | 0.44 µM and 0.382 µM | < 0.001 | 0.183 |  | > 100
COc1cc2c(c(OC)c1O)-c1ccc(OC)c(=O)cc1[C@@H](NC(=O)C(F)(F)F)CC2 |  | > 100 |  | > 100 |  | 0.151 |  | > 100 µM |  | > 100 |  |  |  | > 100 |  |  |  | > 100 |  | > 100
CO/[N+]([O-])=C\C(=O)N/C=C/C(=O)O |  | > 100 |  | > 100 |  | > 100 |  | > 100 µM |  | > 100 |  |  |  | > 100 |  | > 100 µM |  | > 100 |  | > 100
Cc1nc2ccccn2c1NC(=O)NNC(=S)Nc1ccc(Br)cc1 | 40.1 | > 100 | 24.5 | 67.9 | 38.6 µM | 94.8 | 49.4 | > 100 µM |  |  | 24.9 | 69.8 | 57.5 | > 100 | 52.6 µM | > 100 µM | 39.1 | > 100 | 39.8 | > 100
CNC1C(O)C(OC2C(N)CC(N)C(OC3OC(CN)=CCC3N)C2O)OCC1(C)O (stereo not given) |  | > 100 |  | > 100 |  | > 100 |  | > 100 µM |  | > 100 |  | > 100 |  | > 100 |  |  |  | > 100 |  | > 100
O=Nc1ccc(O)c2ccccc12 |  |  | 1.83 | 3.41 | 0.25 µM | 0.643 | 3.31 | 9.01 µM | 1.61 | 3.62 | 1.86 | 5.71 | 2.04 | 4.55 | 2.86 µM | 8.24 µM | 2.31 | 6.65 | 1.82 | 3.6

Source: PubChem BioAssay (NCI)
